Laboratory results from patent publication US20250145665A1, “MACROCYCLIC PEPTIDES USEFUL AS MODULATORS OF TNF ALPHA” (Bristol-Myers Squibb Company, priority 2023, published 2025).
Like-named read-outs stand apart in the source and are kept apart here. Starred links: 1 amine or outer side, 2 acyl side, 3 side chain; linkers in the order of their positions; H or OH if unused. Positions of bridges follow the written chain, without caps; N, C: chain ends. Non-standard residues stand in square brackets, D forms with d. Residues, ends and D or L forms follow the SMILES beside them. *: point of attachment. Bip(4'-NHCO-C6H4-3-CH2COOH) = N[C@@H](Cc1ccc(-c2ccc(NC(=O)c3cccc(CC(=O)O)c3)cc2)cc1)C(=O)O; Bip(4'-(3-HOOC-benzamido)) = N[C@@H](Cc1ccc(-c2ccc(NC(=O)c3cccc(C(=O)O)c3)cc2)cc1)C(=O)O; X5 = Cn1nc(C(=O)Nc2ccc(-c3ccc(C[C@H](N[*:1])C(=O)[*:2])cc3)cc2)c2ccccc21; Bip(4'-NH) = O=C([C@H](Cc1ccc(-c2ccc(N[*:3])cc2)cc1)N[*:1])[*:2]; Bip(4'-CONHMe) = CNC(=O)c1ccc(-c2ccc(C[C@H](N)C(=O)O)cc2)cc1; dArg(ω-Bn(3-CH2OH)) = N=C(NCCC[C@@H](N)C(=O)O)NCc1cccc(CO)c1; Indazole3carbonyl(1-CH2COOH) = O=C(O)Cn1nc(C(=O)*)c2ccccc21; Bip(4'-COOH) = N[C@@H](Cc1ccc(-c2ccc(C(=O)O)cc2)cc1)C(=O)O; Bip(4'-NHAc) = CC(=O)Nc1ccc(-c2ccc(C[C@H](N)C(=O)O)cc2)cc1; X25 = N=C(N)Nc1cccc(CNC(=N)NCCC[C@@H](N[*:1])C(=O)[*:2])c1; X11 = CC(=O)N[C@@H](Cc1cn(CC(=O)O)c2ccccc12)C(=O)*; Ala(imidazol-2-yl) = N[C@@H](Cc1ncc[nH]1)C(=O)O; Ala(morpholin-4-yl) = N[C@@H](CN1CCOCC1)C(=O)O; Bip = N[C@@H](Cc1ccc(-c2ccccc2)cc1)C(=O)O; Val(3-OH) = CC(C)(O)[C@H](N)C(=O)O; Cha = N[C@@H](CC1CCCCC1)C(=O)O; Tle = CC(C)(C)[C@H](N)C(=O)O; Sar = CNCC(=O)O

Molecular target: TNFα (Homo sapiens, UniProt P01375)
Assay: TNF-Induced HEK-Blue Assay
Type: cell-based
[1] = HEK-Blue-CD40L cells, NF-kB-driven secreted alkaline phosphatase reporter, TNFα 0.5 ng/ml, 18 h, read-out: TNF induced HEK-Blue assay IC50 value

Sequence of TNFα (P01375 77-233 limits assumed): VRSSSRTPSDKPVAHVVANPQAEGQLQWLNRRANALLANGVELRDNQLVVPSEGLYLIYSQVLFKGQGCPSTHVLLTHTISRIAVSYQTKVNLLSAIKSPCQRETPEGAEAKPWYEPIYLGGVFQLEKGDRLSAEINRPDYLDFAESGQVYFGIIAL

SMILES | IC50 [1] | IC50
CC(C)C[C@@H]1NC(=O)[C@H](CCCNC(=N)N)NC(=O)[C@H](C(C)C)NC(=O)[C@@H]2CCCN2C(=O)[C@H](C(C)C)NC(=O)[C@@H](CCCNC(=N)NCc2cccc(NC(=N)N)c2)NC(=O)[C@H](CC(=O)O)NC(=O)[C@@H]2CCCN2C(=O)CN(C)C(=O)[C@H](Cc2ccc(-c3ccc(NC(=O)c4nn(C)c5ccccc45)cc3)cc2)NC(=O)[C@H](Cc2ccc(-c3ccccc3)cc2)NC(=O)[C@H](CN2CCOCC2)NC(=O)CSC[C@@H](C(=O)NCC(N)=O)NC1=O [Example 438] ({CH2CO}-[Ala(morpholin-4-yl)][Bip][X5][Sar]PD[X25]VPVRLCG-NH2; thioether N-13) | 50 to 200 nM | 
CC[C@H](C)[C@@H]1NC(=O)[C@@H]2CCCN2C(=O)[C@H]([C@@H](C)CC)NC(=O)[C@@H](CCCNC(=N)N)NC(=O)[C@H](CC(=O)O)NC(=O)[C@@H]2CCCN2C(=O)CN(C)C(=O)[C@H](Cc2ccc(-c3ccc(NC(C)=O)cc3)cc2)NC(=O)[C@H](Cc2ccc(-c3ccc(C(=O)O)cc3)cc2)NC(=O)[C@H](C(C)(C)C)NC(=O)CSC[C@@H](C(=O)NCC(N)=O)NC(=O)[C@H](CC(C)C)NC(=O)[C@H](Cc2ccc(O)cc2)NC1=O [Example 300] ({CH2CO}-[Tle][Bip(4'-COOH)][Bip(4'-NHAc)][Sar]PD[dR]IPIYLCG-NH2; thioether N-13) | 50 to 200 nM | 
CNC(=O)c1ccc(-c2ccc(C[C@@H]3NC(=O)[C@H](CN4CCOCC4)NC(=O)CSC[C@@H](C(=O)NCC(N)=O)NC(=O)[C@H](CC(C)C)NC(=O)[C@H](CCCNC(=N)N)NC(=O)[C@H](C(C)C)NC(=O)[C@@H]4CCCN4C(=O)[C@H](C(C)C)NC(=O)[C@@H](CCCNC(=N)NCc4cccc(CO)c4)NC(=O)[C@H](CC(=O)O)NC(=O)[C@@H]4CCCN4C(=O)CN(C)C(=O)[C@H](Cc4ccc(-c5ccc(NC(=O)c6nn(CC(=O)O)c7ccccc67)cc5)cc4)NC3=O)cc2)cc1 [Example 426] ({CH2CO}-[Ala(morpholin-4-yl)][Bip(4'-CONHMe)][Bip(4'-NH)](Indazole3carbonyl(1-CH2COOH))[Sar]PD[dArg(ω-Bn(3-CH2OH))]VPVRLCG-NH2; thioether N-13) |  | < 50 nM
CC(C)C[C@@H]1NC(=O)[C@H](Cc2ccc(O)cc2)NC(=O)[C@H](C(C)C)NC(=O)CN(C)C(=O)[C@H](C(C)C)NC(=O)[C@H](CCCNC(=N)N)NC(=O)[C@H](CC(=O)O)NC(=O)[C@@H]2CCCN2C(=O)CN(C)C(=O)[C@H](Cc2ccc(-c3ccccc3)cc2)NC(=O)[C@H](Cc2ccc(-c3ccccc3)cc2)NC(=O)[C@H](C(C)(C)O)NC(=O)CSC[C@@H](C(=O)NCC(N)=O)NC1=O [Example 141] ({CH2CO}-[Val(3-OH)][Bip][Bip][Sar]PDRV[Sar]VYLCG-NH2; thioether N-13) | 50 to 200 nM | 
CC[C@H](C)[C@@H]1NC(=O)[C@@H]2CCCN2C(=O)[C@H]([C@@H](C)CC)NC(=O)[C@@H](CCCNC(=N)N)NC(=O)[C@H](CC(=O)O)NC(=O)[C@H](Cc2ccccc2)NC(=O)CN(C)C(=O)[C@H](Cc2ccc(-c3ccc(NC(=O)[C@H](Cc4cn(CC(=O)O)c5ccccc45)NC(C)=O)cc3)cc2)NC(=O)[C@H](Cc2ccc(-c3ccc(C(=O)O)cc3)cc2)NC(=O)[C@H](C(C)(C)C)NC(=O)CSC[C@@H](C(=O)NCC(N)=O)NC(=O)[C@H](CC(C)C)NC(=O)[C@H](Cc2ncc[nH]2)NC1=O [Example 416] ({CH2CO}-[Tle][Bip(4'-COOH)][Bip(4'-NH)](X11)[Sar]FD[dR]IPI[Ala(imidazol-2-yl)]LCG-NH2; thioether N-13) | 50 to 200 nM | 

Continued, in another order:

IC50 [1] | SMILES | IC50
< 50 nM | CC[C@H](C)[C@@H]1NC(=O)[C@@H](CCCNC(=N)N)NC(=O)[C@H](CC(=O)O)NC(=O)[C@H](Cc2cnc[nH]2)NC(=O)CN(C)C(=O)[C@H](Cc2ccc(-c3ccc(NC(=O)c4cccc(C(=O)O)c4)cc3)cc2)NC(=O)[C@H](Cc2ccc(-c3ccc(C(=O)O)cc3)cc2)NC(=O)[C@H](CC2CCCCC2)NC(=O)CSC[C@@H](C(=O)NCC(N)=O)NC(=O)[C@H](CC(C)C)NC(=O)[C@H](Cc2cnc[nH]2)NC(=O)[C@H](C(C)C)NC(=O)[C@@H]2CCCN2C1=O [Example 530] ({CH2CO}-[Cha][Bip(4'-COOH)][Bip(4'-(3-HOOC-benzamido))][Sar]HD[dR]IPVHLCG-NH2; thioether N-13) | 
< 50 nM | CC[C@H](C)[C@@H]1NC(=O)[C@@H](CCCNC(=N)N)NC(=O)[C@H](CC(=O)O)NC(=O)[C@H](Cc2cnc[nH]2)NC(=O)CN(C)C(=O)[C@H](Cc2ccc(-c3ccc(NC(=O)c4cccc(CC(=O)O)c4)cc3)cc2)NC(=O)[C@H](Cc2ccc(-c3ccccc3)cc2)NC(=O)[C@H](CN2CCOCC2)NC(=O)CSC[C@@H](C(=O)NCC(N)=O)NC(=O)[C@H](CC(C)C)NC(=O)[C@H](Cc2cnc[nH]2)NC(=O)[C@H](C(C)C)NC(=O)[C@@H]2CCCN2C1=O [Example 481] ({CH2CO}-[Ala(morpholin-4-yl)][Bip][Bip(4'-NHCO-C6H4-3-CH2COOH)][Sar]HD[dR]IPVHLCG-NH2; thioether N-13) | 
